Measured values: US20090312414A1, “Treatment Of Lower Urinary Tract Dysfunction With CB2-Receptor-Selective Agonists” (priority 2008, published 2009)

Tests used:
CB1 receptor = CB1 receptor (Homo sapiens, UniProt P21554); assay: biochemical; assay type: binding; details: displaces 50% of a radiolabeled agonist
[1] = tested on: conscious rats treated with cyclophosphamide; assay: Cystometry in cyclophosphamide-induced model of IC/PBS; assay type: in vivo, rat; details: 10 mg/kg IP; for Bladder capacity (BC): CYP-treated rats
From the text: This study involved the determination of the acute effect of the compound of Formula I on bladder function in conscious rats in the cyclophosphamide-induced model of interstitial cystitis/painful bladder syndrome (“IC/PBS”) using cystometry. The clinical use of cyclophosphamide (“CYP”), a chemotherapy drug that is given as a treatment for many types of cancer, can cause inflammation of the bladder lining, inducing acute hemorrhagic cystitis or chronic cystitis, and result in side effects in the bladder that can be seen in patients with IC/PBS. (Levine L A, Richie J P. Urological complications of cyclophosphamide. J Urol. 1989; 141:1063; Stillwell T J, Benson R C. Cyclophosphamide-induced cystitis. A review of 100 patients. Cancer. 1988; 61:451). The cystitis is not caused by CYP itself, but to acrolein, a toxic CYP metabolite produced by microsomal metabolism that is eliminated by the bladder (Levine L A, Richie J P. Urological complications of cyclophosphamide. J Urol. 1989; 141:1063). In rats, IP administration of CYP induces bladder inflammation and disrupts the urothelial lining, increasing afferent nerve sensitivity and leading to bladder overactivity. Bladder weight is increased due to the inflammation, and bladder capacity is decreased (Corrow K A, Vizzard M A. Phosphorylation of extracellular signal-regulated kinases in urinary bladder in rats with cyclophosphamide-induced cystitis. Am J Physiol. 2007; 293:R125; Lecci A, Birder L A, Meini S, Catalioto R-M, Tramontana M, Giuliani S, Criscuoli M, Maggi C A. Pharmacological evaluation of the role of cyclooxygenase isoenzymes on the micturition reflex following experimental cystitis in rats. Br J Pharmacol. 2000; 130:331).
Male Sprague Dawley rats, weighing 250 g, were maintained under standard laboratory conditions with a 12:12 light/dark cycle and free access to food pellets and water. For surgical procedures, the rats were anesthetized with IP administration of Equinthensin solution (3 ml/kg).
The bladder was exposed via a mid-line incision of the lower abdomen, and the bladder was freed from adhering tissues and emptied. A saline-filled polyethylene catheter (0.58 mm ID and 0.96 mm OD) was implanted in the bladder via an incision at the bladder dome and sutured in place with silk thread. For IV compound administration, a similar PE catheter filled with saline containing sodium heparin (40 IU/ml) was inserted into a jugular vein. The cannulas were exteriorized through a subcutaneous tunnel in the retroscapular area and are connected with a plastic adaptor in order to avoid removal by the animal. […]
Bladder capacity (“BC”) and micturition pressure (“MP”) were the urodynamic parameters evaluated from the cystometrogram. […]

[2] = tested on: isolated detrusor from rats with partial urethral obstruction; assay: Nerve-induced contractions (electrical field stimulation) in bladder strips from PUO rats; assay type: ex vivo, rat; details: for Nerve-induced contractions: % of 60 mM K+ responses, preparations from treated PUO rats
Procedure: The effect of chronic treatment with the compound of Formula I was studied in contractility studies with isolated bladder strips from rats with PUO after 2 weeks of treatment with the compound of Formula I.
Bladder strips (2×2×6 mm) were dissected from PUO rat bladders. Silk ligatures were applied at both ends of the preparations which then were mounted on metal prongs in 5 ml aerated (95% O2 and 5% CO2) tissue baths (37° C.) containing Krebs solution. Mechanical activity was registered with Grass FT 03C force transducers connected to a Grass Polygraph model 7E. The preparations were stretched to a tension of approximately 10 mN and left to equilibrate for 45 minutes to attain a stable resting tonus. To establish the viability of the preparations and to determine a standard contractile level, preparations were exposed to a 60 mM K^+ Krebs solution. The effects of cumulative addition of carbachol, a non-selective muscarininc agonist (1 nM-0.1 mM), were studied in strip preparations from vehicle-treated and compound of Formula I-treated rats with PUO.
Transmural activation of nerves was performed with two platinum electrodes, placed in parallel to the sides of the strips in the organ baths. The nerves of the preparations were stimulated by means of a Grass S 48 stimulator, delivering single square-wave pulses at supramaximum voltage with duration of 0.5 ms. The polarity was changed after each pulse by means of a polarity-changing unit. The train duration was 5 seconds and the train interval 120 seconds. Frequency-response relationships were investigated at supramaximum voltage in all preparations stimulated electrically. […] All contractile responses were expressed as a percentage of the contraction elicited by 60 mM K^+ Krebs solution. Simultaneous curve fit analysis was performed using GraphPad Prism v4.0 to determine statistical significance for increased efficacy of the compound of Formula I treatment upon muscle strips. Briefly, dose-response curves were tested comparing a variable slope model vs. a fixed slope (m=1) model.

Chain of CB1 receptor (P21554 whole entry): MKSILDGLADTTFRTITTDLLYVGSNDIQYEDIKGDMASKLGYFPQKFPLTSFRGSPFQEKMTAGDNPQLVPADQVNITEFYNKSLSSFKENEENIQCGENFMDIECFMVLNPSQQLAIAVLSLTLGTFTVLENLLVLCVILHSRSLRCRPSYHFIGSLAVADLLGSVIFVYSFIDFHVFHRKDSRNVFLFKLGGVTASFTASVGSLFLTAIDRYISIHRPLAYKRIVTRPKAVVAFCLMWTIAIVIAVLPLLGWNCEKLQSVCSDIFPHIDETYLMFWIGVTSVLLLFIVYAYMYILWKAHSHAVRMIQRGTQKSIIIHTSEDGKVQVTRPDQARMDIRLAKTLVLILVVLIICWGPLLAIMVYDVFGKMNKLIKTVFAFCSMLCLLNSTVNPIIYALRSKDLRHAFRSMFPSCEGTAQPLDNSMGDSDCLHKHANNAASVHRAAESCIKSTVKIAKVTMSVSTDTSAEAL

CCCCCCC(C)(C)c1cc(O)c([C@H]2CC(=O)[C@H]3C[C@@H]2C3(C)C)c(OC(=O)/C=C/C(=O)O)c1 [Formula I]
IC50 (CB1 receptor): 660 nM | Reduction of BC compared to pre-CYP treatment levels ([1]; 26 hr time point): 29% | Reduction of BC compared to pre-CYP treatment levels ([1]; 28 hr time point): 21% | Bladder capacity (BC) ([1]; 2 hr post treatment (26 hr time point)): 0.57 ± 0.06 mL | Bladder capacity (BC) ([1]; 4 h after administration (28 hr time point)): 0.63 ± 0.09 mL | Nerve-induced contractions vs untreated PUO rats ([2]; 1 Hz, bladders from PUO rats treated for 2 weeks): significantly larger contractions | Nerve-induced contractions ([2]; 8 Hz, p<0.01): 83±14% | Nerve-induced contractions ([2]; 16 Hz, p<0.005): 120±16% | Nerve-induced contractions ([2]; 32 Hz, p<0.006): 146±16%
